Experiment [1] deals with human aldose reductase (hALR2) (Homo sapiens, UniProt P15121). Description: Inhibition of human aldose reductase (hALR2), methods similar to Butera et al. The experiment is classed as biochemical. To be noted: for HALR1/hALR2: ratio of hALR1 IC50 to hALR2 IC50 (selectivity). The protocol:
Representative compounds of Formula Iwere tested for their potency, selectivity and efficacy as inhibitors of human aldose reductase.
Since high potency of test compounds as inhibitors of aldose reductase is desirable, low hALR2 IC50 values are sought. On the other hand, high potency of test compounds as inhibitors of aldehyde reductase is undesirable, and high ALR1 IC50s values are sought. Accordingly, the hALR1/hALR2 ratio is used to determine the selectivity of the test compounds. The importance of this selectivity is Described in Kotani, et al., J. Med. Chem. 40: 684, 1997.

In experiment [2] the target is T1, human aldehyde reductase (hALR1) (Homo sapiens, UniProt P14550).
T1 sequence (P14550 1-325): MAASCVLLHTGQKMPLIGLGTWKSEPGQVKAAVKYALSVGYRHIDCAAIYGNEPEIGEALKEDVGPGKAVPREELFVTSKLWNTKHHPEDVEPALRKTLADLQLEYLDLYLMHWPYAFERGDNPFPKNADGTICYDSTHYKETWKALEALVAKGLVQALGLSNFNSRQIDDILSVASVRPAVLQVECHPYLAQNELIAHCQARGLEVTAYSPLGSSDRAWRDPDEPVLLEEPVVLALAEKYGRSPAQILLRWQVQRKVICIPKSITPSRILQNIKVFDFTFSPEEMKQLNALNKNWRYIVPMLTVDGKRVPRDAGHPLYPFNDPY
Description: Inhibition of human aldehyde reductase (hALR1), methods of Ishii et al. The experiment is classed as biochemical. As to the method:
In a second assay, a number of the same compounds were tested for their ability to inhibit aldehyde reductase (hALR1), a structurally related enzyme.
Since high potency of test compounds as inhibitors of aldose reductase is desirable, low hALR2 IC50 values are sought. On the other hand, high potency of test compounds as inhibitors of aldehyde reductase is undesirable, and high ALR1 IC50s values are sought. Accordingly, the hALR1/hALR2 ratio is used to determine the selectivity of the test compounds.

Where two headings read alike, the source gives them in different places.

With `O=C(O)Cn1c(-c2ccccc2)c(Cc2nc3c(F)c(F)cc(F)c3s2)c2ccccc21` [Example 14, 2-phenyl-3-(4,5,7-trifluorobenzothiazol-2-yl)methyl-indole-N-acetic Acid], half-maximal inhibition in experiment [1] (IC50) required 101 nM.

As for `O=C(O)Cn1cc(Cc2nc3c(F)c(F)cc(F)c3s2)c2ccc(-c3ccccc3)cc21` [Example 16, 6-phenyl-3-(4,5,7-trifluorobenzothiazol-2-yl)methyl-indole-N-acetic Acid], the 50% inhibitory concentration (IC50) in experiment [1] was 25 nM; in experiment [2], 6200 nM. Moreover, the HALR1/hALR2 in experiment [1] came out at 248.

Molecule `COc1ccc2c(c1)c(Cc1nc3c(F)c(F)cc(F)c3s1)cn2CC(=O)O` [Example 30, 5-Methoxy-3-(4,5,7-trifluorobenzothiazol-2-yl) methyl-indole-N-acetic Acid] displayed an IC50 in experiment [1] of 7.7 nM.

Regarding `O=C(O)Cn1cc(Cc2nc3c(F)c(F)cc(F)c3s2)c2cc(Cl)ccc21` [Example 2, 5-chloro-3-(4,5,7-Trifluorobenzothiazol-2-yl)methyl-indole-N-acetic Acid], 10 nM corresponded to half-maximal inhibition in experiment [1] (IC50).

As for `O=C(O)Cn1cc(Cc2nc3c(F)c(F)cc(F)c3s2)c2ccc(N3CCOCC3)cc21` [Example 18, 6-morpholino-3-(4,5,7-trifluorobenzothiazol-2-yl) methyl-indole-N-acetic Acid], the HALR1/hALR2 in experiment [1] is on record as >6,700. Besides, the results for the IC50 in experiment [1] (read-out: hALR2 (IC50)) and in experiment [2] (read-out: HALR1 (IC50)) were 15 nM and more than 100000 nM, respectively.

As for `O=C(O)Cn1cc(Cc2nc3cc(F)ccc3s2)c2ccccc21` [Example 23, 3-[5-Fluorbenzothiazole-2-yl]methyl-indole-N-acetic Acid], the values for the IC50 in experiment [1] and in experiment [2] were 9 nM and 6500 nM, respectively. Further, in experiment [1], the HALR1/hALR2 was determined as 720.

As for `O=C(O)Cn1cc(Cc2nc3c(F)c(F)cc(F)c3s2)c2cc(OCc3ccccc3)ccc21` [Example 7, 5-benzyloxy-3-(4,5,7-trifluorobenzothiazol-2-yl)methyl-indole-N-acetic Acid], the half-inhibitory concentration (IC50) in experiment [1] stood at 12 nM.

The molecule `CC(C(=O)O)n1cc(Cc2nc3c(F)c(F)cc(F)c3s2)c2ccccc21` (stereo not drawn) [Example 25, 3-(4.5,7-trifluorobenzothiazol-2-yl)methyl-indole-N-2-propionic Acid] showed a 50% inhibitory concentration (IC50) in experiment [1] of 160 nM.

For the molecule `O=C(O)Cn1cc(Cc2nc3c(F)c(F)cc(F)c3s2)c2ccc(F)cc21` [Example 8, 6-fluoro-3-(4,5,7-trifluorobenzothiazol-2-yl)methyl-indole-N-acetic Acid], the IC50 in experiment [1] was 7 nM.

In experiment [1], `O=C(O)Cn1cc(Cc2nc3c(F)c(F)cc(F)c3s2)c2ccc(Cl)cc21` [Example 6, 6-chloro-3-(4,5,7-trifluorobenzothiazol-2-yl)methyl-indole-N-acetic Acid] yielded an IC50 of 8 nM.

For `O=C(O)Cn1cc(Cc2nc3ccc(Cl)cc3s2)c2ccccc21` [Example 32, 3-(6-chlorobenzothiazol-2-yl) methyl-indole-N-acetic Acid], the IC50 in experiment [1] was 660 nM.

Regarding `O=C(O)Cn1cc(Cc2nc3c(F)c(F)cc(F)c3s2)c2cc(-c3ccccc3)ccc21` [Example 15, 5-phenyl-3-(4,5,7-trifluorobenzothiazol-2-yl)methyl-indole-N-acetic acid], the midpoint of inhibition in experiment [1], the IC50, lay at 53 nM.

In experiment [1], `O=C(O)Cn1cc(Cc2nc3c(F)c(F)cc(F)c3s2)c2cc(N3CCOCC3)ccc21` [Example 17, 5-morpholino-3-(4,5.7-trifluorobenzothiazol-2-yl)methyl-indole-N-acetic Acid] showed a 50% inhibitory concentration (IC50) of 8 nM.

The molecule `O=C(O)Cn1cc(Cc2nc3c(F)c(F)cc(F)c3s2)c2cc(Oc3ccccc3)ccc21` [Example 19, 5-phenoxy-3-(4,5,7-trifluorobenzothiazol-2-yl)methyl-indole-N-acetic Acid] had a 50% inhibitory concentration (IC50) in experiment [1] of 30 nM.

Molecule `O=C(O)CCn1cc(Cc2nc3c(F)c(F)cc(F)c3s2)c2ccccc21` [Example 26, 3-(4-5.7-trifluorobenzothiazol-2-yl)methyl-indole-N-3-propionic Acid] registered a half-inhibitory concentration (IC50) in experiment [1] of 17 nM.

As for `O=C(O)Cn1cc(Cc2nc3cc(C(F)(F)F)ccc3s2)c2ccc(Br)cc21` [Example 27, 6-Bromo-3-(5-trifluoromethylbenzothiazol-2-yl)methyl-indole-N-acetic acid], in experiment [1], the IC50 worked out at 52 nM and the HALR1/hALR2 is given as less than 96. Moreover, in experiment [2], the IC50 is less than 5000 nM.

In turn, `Cc1ccc2c(Cc3nc4c(F)c(F)cc(F)c4s3)cn(CC(=O)O)c2c1` [Example 10, 6-methyl-3-(4,5,7-trifluorobenzothiazol-2-yl)methyl-indole-N-acetic Acid] displayed an IC50 in experiment [1] of 5 nM.

The molecule `COc1ccc2c(Cc3nc4c(F)c(F)cc(F)c4s3)cn(CC(=O)O)c2c1` [Example 28, 6-Methoxy-3-(4,5,7-trifluorobenzothiazol-2-yl)methyl-indole-N-acetic acid] came in with a concentration for half-maximal inhibition (IC50) in experiment [1] of 5 nM.

`O=C(O)Cn1cc(Cc2nc3c(F)c(F)cc(F)c3s2)c2cc(F)ccc21` [Example 9, 5-fluoro-3-(4,5,7-trifluorobenzothiazol-2-yl)methyl-indole-N-acetic Acid] registered a 50% inhibitory concentration (IC50) in experiment [1] of 11 nM.

In experiment [1], `Cc1cccc2c(Cc3nc4c(F)c(F)cc(F)c4s3)cn(CC(=O)O)c12` [Example 5, 7-methyl-3-(4,5,7-trifluorobenzothiazol-2-yl)methyl-indole-N-acetic Acid] registered a 50% inhibitory concentration (IC50) of 6 nM.

Take “3-[6-Fluorbenzothiazole-2-yl]methyl-indole-N-acetic Acid [Example 24]”: the HALR1/hALR2 in experiment [1] is given as 4.

The molecule `O=C(O)Cn1cc(Cc2nc3c(F)c(F)cc(F)c3s2)c2cccc(Cl)c21` [Example 22, 7-chloro-3-(4,5,7-trifluorobenzothiazol-2-yl)methyl-indole-N-acetic Acid] came in with an IC50 in experiment [1] of 9.1 nM.

Molecule `Cc1ccc2c(c1)c(Cc1nc3c(F)c(F)cc(F)c3s1)cn2CC(=O)O` [Example 4, 5-methyl-3-(4,5,7-trifluorobenzothiazol-2-yl)methyl-indole-N-acetic Acid] registered an IC50 in experiment [1] of 8 nM.

As for `O=C(O)Cn1cc(Cc2nc3cc(C(F)(F)F)ccc3s2)c2ccccc21` [Example 11, 3-(5-trifluoromethylbenzothiazol-2-yl)methyl-indole-N-acetic Acid], the IC50 in experiment [1] was determined as 99 nM.

`O=C(O)Cn1cc(Cc2nc3c(F)c(F)cc(F)c3s2)c2cccc(F)c21` [Example 20, 7-fluoro-3-(4,5,7-trifluorobenzothiazol-2-yl)methyl-indole-N-acetic Acid]: in experiment [1], the IC50 came out at 7 nM.

In experiment [1], `O=C(O)Cn1cc(Cc2nc3c(F)c(F)cc(F)c3s2)c2cccc(Br)c21` [Example 21, 7-bromo-3-(4,5,7-trifluorobenzothiazol-2-yl)methyl-indole-N-acetic Acid] returned an IC50 of 14 nM.

As for `Cc1ccc2c(c1)c(Cc1nc3cc(C(F)(F)F)ccc3s1)cn2CC(=O)O` [Example 12, 5-Methyl-3-(5-Trifluoromethylbenzothiazol-2-yl)methyl-indole-N-acetic Acid], in experiment [1], the half-inhibitory concentration (IC50) is 102 nM and the HALR1/hALR2 is 98. Also, 10000 nM corresponded to half-maximal inhibition in experiment [2] (IC50).

In experiment [1], `Cc1c(Cc2nc3c(F)c(F)cc(F)c3s2)c2ccccc2n1CC(=O)O` [Example 1, 2-methyl-3-(4,5,7-trifluorobenzothiazol-2-yl)methyl-indole-N-acetic Acid] yielded a half-inhibitory concentration (IC50) of 8 nM.

Consider `O=C(O)Cn1cc(Cc2nc3c(F)c(F)cc(F)c3s2)c2cc(Br)ccc21` [Example 31, 5-Bromo-3-(4,5.7-trifluorobenzothiazol-2-yl) methyl-indole-N-acetic acid], for which, in experiment [1], inhibition was half-maximal at 13 nM (IC50) and the HALR1/hALR2 stood at 746. Also, the IC50 in experiment [2] worked out at 9700 nM.

Consider `O=C(O)Cn1cc(Cc2nc3c(F)c(F)cc(F)c3s2)c2c(Cl)cccc21` [Example 29, 4-Chloro-3-(4,5,7-trifluorobenzothiazol-2yl) methyl-indole-N-acetic Acid], for which the IC50 in experiment [1] was 11 nM.

As for `O=C(O)Cn1cc(Cc2cccc([N+](=O)[O-])c2)c2ccccc21` [Example 13, 3-(3-nitrophenyl)methyl-indole-N-acetic Acid], in experiment [1], half-maximal inhibition (IC50) was put at 73 nM and the HALR1/hALR2 was found to be 178. For the same molecule, in experiment [2] (read-out: HALR1 (IC50)), the IC50 is 13000 nM.

Source of the values: US6521659B2, “Compositions containing a substituted indolealkanoic acid and an angiotensin converting enzyme inhibitor” (Institute for Pharmaceutical Discovery, LLC, priority 2000, dated 2003).
